Test results from PubChem BioAssay (NCI).
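How tested: cells in 96-well plates exposed to compound for 48 hours at five concentrations. GI50 marks 50% less growth. TGI denotes the concentration required for complete inhibition of growth.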

Legend:
Assay in all cases: NCI anticancer screen, dose series, 48 h
DLD-1 colon = system: DLD-1 colon
SNB-78 CNS = system: SNB-78 CNS
DMS 114 small cell lung = system: DMS 114 small cell lung
RXF-631 renal = system: RXF-631 renal
MDA-MB-435 = system: MDA-MB-435
NCI/ADR-RES ovarian = system: NCI/ADR-RES ovarian
MCF7 breast = system: MCF7 breast
MDA-MB-231 breast = system: MDA-MB-231 breast
HOP-18 NSCLC = system: HOP-18 NSCLC

Row | Compound | TGI (DLD-1 colon) [µM] | TGI (SNB-78 CNS) [µM] | TGI (DMS 114 small cell lung) [µM] | TGI (MDA-MB-435) [µM] | TGI (MDA-MB-231 breast) [µM] | TGI (NCI/ADR-RES ovarian) [µM] | TGI (MCF7 breast) [µM] | other results
1 | Cc1cccc(NC(N)=S)c1 | > 100 | > 100 | > 100 |  |  |  |  | TGI (RXF-631 renal): > 100 µM
2 | COc1ccc2c(c1)C(=O)c1c-2n(CCCCl)c(=O)c2cc([N+](=O)[O-])ccc12 |  |  |  | 9.22 | > 46 |  |  | GI50 (MDA-MB-435): 985 nM; GI50 (NCI/ADR-RES ovarian): 81.5 nM; GI50 (MCF7 breast): < 10 nM
3 | CN(C)C=O.CN(C)C=O.CN1C(C(=O)Nc2ccccn2)=C([O-])c2ccccc2S1(=O)=O.CN1C(C(=O)Nc2ccccn2)=C([O-])c2ccccc2S1(=O)=O.[Cu+2] |  | > 100 | > 100 |  |  |  |  | GI50 (HOP-18 NSCLC): > 100 µM; TGI (HOP-18 NSCLC): > 100 µM; GI50 (SNB-78 CNS): 64.3 µM; GI50 (DMS 114 small cell lung): 32.2 µM; GI50 (RXF-631 renal): 87.4 µM; TGI (RXF-631 renal): > 100 µM
4 | N=C(N)SC(c1ccccc1)c1ccccc1 |  |  |  | 26.5 | 33.5 | 47 | 30 | 
5 | Nc1ccc([As](=O)(O)O)cc1 |  |  |  | > 100 | > 100 | > 100 | > 100 | 
6 | Cn1ncc2c(=O)[nH]c(-c3ccccc3)nc21 | > 100 | > 100 | > 100 |  |  |  |  | TGI (RXF-631 renal): > 100 µM
7 | CC(C)(c1ccccc1)c1ccc(Oc2ccc3c(c2)-c2nc-3nc3[nH]c(nc4nc(nc5[nH]c(n2)c2ccc(Oc6ccc(C(C)(C)c7ccccc7)cc6)cc52)-c2cc(Oc5ccc(C(C)(C)c6ccccc6)cc5)ccc2-4)c2ccc(Oc4ccc(C(C)(C)c5ccccc5)cc4)cc32)cc1 | > 100 | > 100 |  |  |  |  |  | TGI (RXF-631 renal): > 100 µM
8 | O=C(Nc1ccc(-n2ccc3c(NC(=O)c4ccccc4)ncnc32)cc1)Nc1ccc(Cl)c(C(F)(F)F)c1 |  |  |  | 4.43 | 3.66 | 8.55 | 3.24 | GI50 (MDA-MB-435): 1850 nM; GI50 (NCI/ADR-RES ovarian): 2410 nM; GI50 (MCF7 breast): 1640 nM; GI50 (MDA-MB-231 breast): 1550 nM
9 | O=C(O)\C=C/C=C/C=C/C=C/C(=O)O | > 100 | > 100 | > 100 |  |  |  |  | TGI (HOP-18 NSCLC): > 100 µM
10 | CCCCCCCCCCCCCCC(C(=O)[O-])[n+]1ccccc1 (stereo not drawn) |  |  |  | > 100 | > 100 | > 100 | 50.9 | 
11 | Cc1cc(N2CCCCC2)nc(NCc2cc(Nc3ccnc4cc(Cl)ccc34)ccc2F)n1 |  |  |  | 3.14 | 3.5 | 4.74 | 1.46 | GI50 (MDA-MB-435): 1640 nM; GI50 (NCI/ADR-RES ovarian): 2000 nM; GI50 (MCF7 breast): 298 nM; GI50 (MDA-MB-231 breast): 1810 nM
12 | CC(C)C(C)C(O)C(O)C(C)C1CCC2C3COC(=O)C4CC(O)C(O)CC4(C)C3CCC12C (stereo not drawn) |  |  |  | > 100 | > 100 | > 100 | > 100 | 
13 | NS(=O)(=O)c1ccc(C(=O)O)cc1 |  |  |  | > 100 | > 100 | > 100 | > 100 | 
14 | COc1ccc(C(=O)NNC(=O)c2nsc3ccccc23)cc1 |  | > 100 | > 100 |  |  |  |  | 
15 | NC(CCCNc1ccc(O)cc1)C(=O)O (stereo not drawn) | 42.6 | > 100 | 54.1 |  |  |  |  | TGI (HOP-18 NSCLC): > 100 µM; TGI (RXF-631 renal): > 100 µM
16 | CC1(C)CCCC2(C)C3=C(CCC12)C(=O)OC3 (stereo not drawn) |  |  |  | > 100 | > 100 | > 100 | > 100 | 
17 | COC(=O)C12OCC34C(CC5C(C)C6=CC(=O)OC6=CC5(C)C3C(O)C1O)OC(=O)C(OC(C)=O)C24 (stereo not drawn) | 25.3 | 48.7 | 35.4 |  |  |  |  | TGI (HOP-18 NSCLC): 27.9 µM; TGI (RXF-631 renal): 33.9 µM
18 | Cn1c(=O)c2c(nc(N3CCOCC3)n2CCCNCC(O)c2ccc(O)c(O)c2)n(C)c1=O (stereo not drawn) |  |  |  | > 100 | > 100 | > 100 | > 100 | 
19 | O=C1CC(c2ccccc2)NCCCCN2CC(CN1)C(C(O)c1ccccc1)C2=O (stereo not drawn) |  |  |  | > 100 | > 100 | > 100 | > 100 | 
20 | CC1(C)CCc2cc3c(cc2O1)OC(C)(C)CC3=O | > 100 |  | > 100 |  |  |  |  | 
21 | CCc1cc(C)cc2[n+]1CC=C2C | > 100 | > 100 |  |  |  |  |  | TGI (HOP-18 NSCLC): 9.88 µM
